Consider one compound from patent publication US20120258481A1, “CROSS-LINKING ATP ANALOGS” (WAYNE STATE UNIVERSITY, priority 2011, published 2012).

The target in one experiment is T1, CK2 kinase (Homo sapiens, UniProt P68400).
T1 construct: purchased New England Biolabs (NEB)
As to the kind of experiment: Kinase-catalyzed photocrosslinking with peptide substrate Rho-14, in-gel fluorescence. The settings on record: Rho-14 200 μM, co-substrate 1.3 mM, 365 nm UV 2 hours at 30° C. It is filed as biochemical.

Another experiment deals with T2, CK2 and α-casein (Homo sapiens, UniProt P68400).
T2 construct: purchased New England Biolabs (NEB)
The experiment in a line: Kinase-catalyzed photocrosslinking with full-length α-casein, SDS-PAGE, coomassie and CK2 western blot. It counts as biochemical. The settings on record: α-casein 100 μM, co-substrate 1.3 mM, 365 nm UV; CK2 immunoblot. As for the experimental part:
Having established phosphorylation-dependent crosslinking between kinase and peptide substrate, crosslinking with a full-length protein substrate was tested. The α-casein protein has been widely used as a model CK2 substrate in phosphoprotein analysis. Crosslinking was carried out by incubating a mixture of CK2 and α-casein with ATP-ArN3 in the presence of UV light. The products were separated by SDS-PAGE and analyzed by coomassie staining (FIG. 3a) and western blot analysis (FIG. 3b). […] Because phosphate transfer is required, a powerful feature of ATP-ArN3-mediated crosslinking is that a kinase substrate is necessarily present in the crosslinked product. Coupled with mass spectrometric analysis, phosphorylation-dependent kinase-substrate crosslinking can determine the sites of phosphorylation in addition to the effector kinase. Importantly, the crosslinking approach is appropriate for studies with cell lysates or homogenized tissue samples since natural kinase and substrate are utilized. […] The reaction products were separated by SDS-PAGE and visualized by coomassie staining, silver staining, in-gel fluorescence imaging, or western blotting with a CK2 antibody (Millipore) after transfer onto a PVDF membrane (Immobilon-PSQ, Millipore). […] The reaction mixtures were incubated for 2 hours at 30° C. before quantitative MALDI-TOF MS analysis (Bruker Daltonics), as previously described. […]
For orientation: Immunoblotting shows a protein as a band on a membrane.

T1 sequence (P68400 whole entry): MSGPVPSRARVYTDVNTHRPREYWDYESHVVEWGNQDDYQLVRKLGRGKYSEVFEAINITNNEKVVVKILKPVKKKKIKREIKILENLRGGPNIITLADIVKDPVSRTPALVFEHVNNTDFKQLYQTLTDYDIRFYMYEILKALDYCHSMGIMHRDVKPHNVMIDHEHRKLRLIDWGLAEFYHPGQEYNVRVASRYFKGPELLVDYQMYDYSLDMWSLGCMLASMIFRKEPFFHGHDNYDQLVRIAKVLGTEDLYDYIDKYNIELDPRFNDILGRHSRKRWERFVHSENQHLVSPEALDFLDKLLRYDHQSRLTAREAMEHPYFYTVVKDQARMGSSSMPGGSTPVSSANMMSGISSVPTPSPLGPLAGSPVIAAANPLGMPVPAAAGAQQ
T1 sequence (P67870 whole entry partner): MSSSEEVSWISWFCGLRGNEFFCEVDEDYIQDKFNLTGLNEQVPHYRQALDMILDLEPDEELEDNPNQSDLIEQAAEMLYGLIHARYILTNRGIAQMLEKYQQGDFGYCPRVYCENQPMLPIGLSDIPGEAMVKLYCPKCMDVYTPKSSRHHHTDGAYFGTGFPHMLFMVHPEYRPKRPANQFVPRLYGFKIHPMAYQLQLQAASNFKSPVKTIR
T2 sequence (P68400 whole entry): as the sequence (P68400 whole entry) above
T2 sequence (P67870 whole entry partner): as the sequence (P67870 whole entry partner) above
Method for CK2 kinase: Crosslinking was tested by incubating CK2 kinase and ATP-ArN3 with rhodamine-labeled CK2 peptide substrate 14 (Rho-[sequence], Rho-14). Simultaneously, the reaction mixture was irradiated with 365 nm light to afford a covalent crosslink (FIG. 1c). If kinase-substrate crosslinking occurred, the kinase was expected to become fluorescently labeled, which would be visualized by gel electrophoresis. […] As a final critical control, the crosslinked product was treated with acid to cleave the phosphoramidate bond bridging the peptide and kinase (FIG. 1c).
Photocrosslinking was initiated by irradiating with a handheld UV lamp at 365 nm for 2 hours at 30° C. The phosphoramidate bond in the crosslinked products was cleaved by adding trifluoroacetic acid (TFA) to a final concentration of 50% and incubating at 16° C. for 3 hours. The reaction products were separated by SDS-PAGE and visualized by coomassie staining, silver staining, in-gel fluorescence imaging, or western blotting with a CK2 antibody (Millipore) after transfer onto a PVDF membrane (Immobilon-PSQ, Millipore).
For the photocrosslinking experiments, CK2 (50 units/μL, 0.7 μM) was incubated with either Rho-14 (200 μM,) or full length α-casein (100 μM, Sigma), while Abl (20 units/μL, 44.4 nM) was incubated with ROX-13 (200 μM). All reactions also contained ATP or ATP-ArN3 (1.3 mM) and the manufacturers' kinase buffer.

For the compound `Nc1ncnc2c1ncn2[C@@H]1O[C@H](COP(=O)(O)OP(=O)(O)OP(=O)(O)O)[C@@H](O)[C@H]1O` [ATP, Adenosine 5′-triphosphate], the “fluorophore labeling of CK2 (kinase-substrate crosslinking)” value on CK2 kinase was “no fluorescence labeling was observed”. Further, the “CK2-α-casein crosslinked complex (68 kDa) formation” value on CK2 and α-casein is “crosslinked complex was absent”.
